Legend:
[1] = biological target: T1, Sodium-dependent dopamine transporter (Rattus norvegicus, UniProt P23977); assay: ability to displace [3H]- Mazindol binding to cocaine binding sites on Dopamine transporter of rat striatal membranes; design: species or system Striatum, Membrane
[2] = biological target: T1, Sodium-dependent dopamine transporter; assay: Compound was tested for its ability to inhibit high affinity uptake of [3H]DA into rat striatal membrane; design: species or system Striatum
[3] = biological target: Sodium-dependent serotonin transporter (Rattus norvegicus, UniProt P31652); assay: Compound was tested for its ability to inhibit high affinity uptake of [3H]5-HT into mid brain nerve endings (synaptosomes) in rat; format: subcellular
[4] = biological target: Norepinephrine transporter (Rattus norvegicus, UniProt Q9WTR4); assay: Compound was tested for its ability to inhibit high-affinity uptake of [3H]NE into parietal and occipital cortex in rat
[5] = tested on: Rattus norvegicus; assay: Percent reduction in cocaine induced reward enhancement after administration of compound at 5 mg/kg or 10 mg/kg combined with 10 mg/kg of cocaine intraperitoneally in rats; format: functional
[6] = biological target: T1, Sodium-dependent dopamine transporter; assay: Binding affinity to a single, sodium-dependent site on the Dopamine transporter in rat striatal membranes; format: cell membranes, Striatum, Membrane

T1 sequence (P23977 whole entry): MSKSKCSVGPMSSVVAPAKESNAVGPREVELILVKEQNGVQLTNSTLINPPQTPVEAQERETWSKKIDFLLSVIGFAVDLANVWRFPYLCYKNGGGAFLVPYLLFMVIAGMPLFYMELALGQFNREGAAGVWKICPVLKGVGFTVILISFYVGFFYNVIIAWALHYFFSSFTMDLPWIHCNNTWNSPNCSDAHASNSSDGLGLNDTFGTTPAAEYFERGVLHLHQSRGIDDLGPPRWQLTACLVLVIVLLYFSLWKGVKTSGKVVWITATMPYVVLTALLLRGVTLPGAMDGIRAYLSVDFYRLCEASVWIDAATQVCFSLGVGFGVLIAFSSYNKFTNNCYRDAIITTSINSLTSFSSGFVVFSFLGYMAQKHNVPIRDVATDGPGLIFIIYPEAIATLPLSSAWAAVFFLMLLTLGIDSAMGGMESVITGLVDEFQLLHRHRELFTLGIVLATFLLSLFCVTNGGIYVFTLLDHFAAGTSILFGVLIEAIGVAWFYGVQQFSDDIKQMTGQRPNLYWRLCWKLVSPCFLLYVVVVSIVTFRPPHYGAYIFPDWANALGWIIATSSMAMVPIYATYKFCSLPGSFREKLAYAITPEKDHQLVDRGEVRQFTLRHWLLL
Norepinephrine transporter, sequence (Q9WTR4 whole entry): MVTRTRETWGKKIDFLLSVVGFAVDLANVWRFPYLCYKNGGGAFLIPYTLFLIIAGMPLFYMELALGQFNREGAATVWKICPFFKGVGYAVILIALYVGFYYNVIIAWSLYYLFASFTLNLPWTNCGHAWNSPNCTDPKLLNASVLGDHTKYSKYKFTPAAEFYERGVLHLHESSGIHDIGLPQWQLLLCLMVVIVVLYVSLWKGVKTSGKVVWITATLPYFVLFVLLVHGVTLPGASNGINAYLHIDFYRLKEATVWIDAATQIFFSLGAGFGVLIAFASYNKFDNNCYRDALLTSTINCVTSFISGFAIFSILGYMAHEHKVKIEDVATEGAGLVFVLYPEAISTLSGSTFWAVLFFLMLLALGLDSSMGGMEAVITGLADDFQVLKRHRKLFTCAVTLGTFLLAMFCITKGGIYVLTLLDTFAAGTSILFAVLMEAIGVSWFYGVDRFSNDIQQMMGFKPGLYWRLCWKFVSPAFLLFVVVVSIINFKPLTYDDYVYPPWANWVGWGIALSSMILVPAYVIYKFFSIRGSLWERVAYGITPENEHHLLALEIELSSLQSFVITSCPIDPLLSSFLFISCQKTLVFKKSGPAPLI
Sodium-dependent serotonin transporter, sequence (P31652 whole entry): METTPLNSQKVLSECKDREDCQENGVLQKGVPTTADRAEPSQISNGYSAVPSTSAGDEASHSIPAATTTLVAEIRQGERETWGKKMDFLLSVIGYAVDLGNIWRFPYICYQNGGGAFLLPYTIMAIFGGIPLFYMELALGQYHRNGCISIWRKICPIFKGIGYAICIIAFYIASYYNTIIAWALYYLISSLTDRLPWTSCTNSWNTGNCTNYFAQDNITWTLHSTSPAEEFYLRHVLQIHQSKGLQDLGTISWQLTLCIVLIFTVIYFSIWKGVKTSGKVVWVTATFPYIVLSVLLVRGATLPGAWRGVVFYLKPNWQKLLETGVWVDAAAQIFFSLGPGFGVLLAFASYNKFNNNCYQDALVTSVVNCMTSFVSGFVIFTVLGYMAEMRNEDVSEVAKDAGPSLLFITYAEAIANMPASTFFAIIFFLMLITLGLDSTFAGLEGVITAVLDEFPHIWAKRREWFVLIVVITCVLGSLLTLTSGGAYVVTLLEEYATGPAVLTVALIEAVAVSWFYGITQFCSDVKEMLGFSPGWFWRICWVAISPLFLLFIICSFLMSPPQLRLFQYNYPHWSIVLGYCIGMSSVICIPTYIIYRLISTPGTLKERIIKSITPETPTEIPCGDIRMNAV

SMILES	Ki [1] [nM]	Ki [2] [nM]	Ki [3] [nM]	Ki [4] [nM]	Reduction [5] [%]	Kd [6] [nM]
CCCC1C(c2ccc(F)cc2)CC2C[C@@H](F)C1N2C (stereo partly drawn)	1150	304	1250	126	–	–
CCCC1C(c2ccc(F)cc2)CC2CC(F)(F)C1N2C (stereo not drawn)	860	1450	7910	3790	–	–
CCCC1C(c2ccc(F)cc2)CC2C[C@H](F)C1N2C (stereo partly drawn)	–	49	561	52	60	–
OC1(c2ccc(Cl)cc2)c2ccccc2C2=NCCN21 (stereo not drawn) [MAZINDOL]	–	–	–	–	–	8.63

Reference: ChEMBL document CHEMBL1133212, “An enantioselective synthesis and biobehavioral evaluation of 7-fluoro-3-(p-fluorophenyl)-2-propyltropanes” (Bioorg Med Chem Lett, 2000)
